What was measured:
Assay type in all cases: cell-based, human
[1] = system: ER transactivation (ERE-luc); assay: ERE-luc transactivation assay
Protocol: MCF-7/DA-Pak1 cells were transfected with ERE-luc, treated with or without Dox for 24 h and then with or without E2 (10^−9M) and/or Tam (10^−8M) for 24 h, and ERE-luc activity was measured. […] FIG. 20D: MCF-7/TAM-Sen and MCF-7/TAMR1 cells were transfected with ERE-luc and treated with E2 or Tam for 24 h and ERE-luc activity was measured. […] FIG. 20L: Ishikawa cells were cotransfected with Pak1 siRNA control or Pak1 siRNA wt and treated with or without Tam (10^−8M) for 24 h and ERE-luc activity was measured.
Ishikawa and MCF-7/TAMR1 cells were transfected with control or Pak1 siRNA for 48 h and then with ERE-luc for 24 h and treated with E2 (10^−9M) for 24 h and ERE-luc activity was measured. […] Ishikawa cells were treated with control or and Pak1 and DLC siRNA for 48 h and then transfected with ERE-luc and treated with Tam (10^−8M) for 24 h and ERE-luc activity was measured.

Pak1 = Pak1 protein expression by immunoblot
Excerpt: FIGS. 20A–20L—Pak1 activation confers tamoxifen-resistance. FIG. 20A: Pak1 activation promoted ER-transactivation function.

DLC1 = DLC1 protein and mRNA expression; settings: MCF-7/TAMR1 and Ishikawa cells, 24 h
Protocol: MCF-7/Tam-sen, MCF-7/TAMR1 and Ishikawa cells were treated with E2 (10^−9M) or Tam (10^−9M) for 24 h, and cell lysates were assayed for DLC1 and Pak1 protein expression. […] FIG. 21C: Effect of different periods of E2 treatment and cycloheximide (CHX) and Actinomycin D (ACTD) treatment on the ability of E2 to upregulate DLC1 mRNA in MCF-7 cells.

DLC1 promoter = DLC1 promoter luciferase reporter; settings: Ishikawa cells, 24 h
Protocol: FIGS. 21A–21J—Estrogenic signals upregulate DLC1 expression via Pak1 pathway. FIG. 21A: DLC1 upregulation by E2 or Tam. MCF-7/Tam-sen, MCF-7/TAMR1 and Ishikawa cells were treated with E2 (10^−9M) or Tam (10^−9M) for 24 h, and cell lysates were assayed for DLC1 and Pak1 protein expression. FIG. 21B: Upregulation of DLC1 mRNA in MCF-7 cells treated with different doses of E2 for 24 h. FIG. 21C: Effect of different periods of E2 treatment and cycloheximide (CHX) and Actinomycin D (ACTD) treatment on the ability of E2 to upregulate DLC1 mRNA in MCF-7 cells. FIG. 21D: DLC1 mRNA and protein levels in MCF-7/DA-Pak1 cells by Northern and Western blotting. FIG. 21E: DLC1 mRNA and protein levels in MCF-7/DN-Pak1 cells by Northern and Western blotting. FIG. 21F: Downregulation of DLC1 protein expression in MCF-7 cells treated with Pak1-siRNA for 24 h. FIG. 21G: Modulation of DLC1 promoter (1245 bp) luc activity by the expression of wtPak1 or DN-Pak1. MCF-7 cells were transfected with DLC1-luc and transfected with either wtPak1 or Pak1 inhibitor 83-149 and luc activity was measured after 24 h. FIG. 21H: Upregulation of DLC1 promoter luc activity following pak1 induction in MCF-7/DA-Pak 1 cells. FIG. 21I: Downegulation of DLC1 promoter luc activity in MCF-7/DN-pak1 cells. […]

ZR75 cells = assay: Cell cycle progression by FACS analysis of serum-starved clones; settings: serum-starved stable clones
Protocol: FIGS. 5A–5C—Requirement of DLC1/PIN and Pak1 interaction in cell proliferation and survival. FIG. 5A: Equal number of cells ZR75R stable cells expressing DLC1/PIN wild type or DLC1/PIN^del88-89 mutant were plated and cell proliferation was determined by trypsinizing and counting cells using a coulter counter. Each colne was plated in triplicate and experiment was repeated twice with similar results. FIG. 5B: Cell cycle progression of DLC1/PIN wild type or mutant clones was analyzed by FACS analysis. […] For example, a smooth nuclear membrane was scored as nonapoptotic, as opposed to membrane blebbing or rupture, which was scored as apoptotic. Nuclei committed to enter mitosis were not scored in either of these groups because they were easily identified for their specific “pulverized” pattern of Lamin A/C staining. Ten randomly selected fields were analyzed for each condition. […]
DLC1/PIN regulation of cell growth and survival. […] After 10 h, apoptosis was quantitated by scoring the integrity of the nuclear membrane in cells expressing both RFP and myc tags to detect DLC/DLC1/PIN and Pak1 respectively (FIG. 5D).

DLC1 promoter activity (DLC1 promoter) | Compound | inhibitory effects on ERE-luc activity ([1]; Ishikawa cells, both DLC1 and Pak1 knocked down) | Pak1-mediated ERE-stimulation ([1]; MCF-7/DA-Pak1 cells) | Pak1 protein expression (Pak1; Ishikawa cells, long-term treatment) | levels of Pak1 protein (Pak1; MCF-7 cells) | expression of the DLC1 protein (DLC1) | cell cycle distribution (ZR75 cells)
stimulated | CC/C(=C(\c1ccccc1)c1ccc(OCCN(C)C)cc1)c1ccccc1 [tamoxifen] | restored the inhibitory effects | not inhibited | increase | no effect | robustly upregulated | –
– | DLC1/PIN^del 88-89: DLC1/PIN mutant in which Ser88 and amino acid 89 were deleted | – | – | – | – | – | significant increase in the cells in pre-Go phase

— patent publication US7067633B2, “Targeting cellular entry, cell survival, and pathogenicity by dynein light chain 1/PIN in human cells” (Board of Regents, The University of Texas System, priority 2003, dated 2006)
